In this experiment the target is T1, human TLR8 (Homo sapiens, UniProt Q9NR97).
T1 construct: host or cells: HEK293 (HEK-Blue hTLR8)
T1 sequence (Q9NR97 27-1041): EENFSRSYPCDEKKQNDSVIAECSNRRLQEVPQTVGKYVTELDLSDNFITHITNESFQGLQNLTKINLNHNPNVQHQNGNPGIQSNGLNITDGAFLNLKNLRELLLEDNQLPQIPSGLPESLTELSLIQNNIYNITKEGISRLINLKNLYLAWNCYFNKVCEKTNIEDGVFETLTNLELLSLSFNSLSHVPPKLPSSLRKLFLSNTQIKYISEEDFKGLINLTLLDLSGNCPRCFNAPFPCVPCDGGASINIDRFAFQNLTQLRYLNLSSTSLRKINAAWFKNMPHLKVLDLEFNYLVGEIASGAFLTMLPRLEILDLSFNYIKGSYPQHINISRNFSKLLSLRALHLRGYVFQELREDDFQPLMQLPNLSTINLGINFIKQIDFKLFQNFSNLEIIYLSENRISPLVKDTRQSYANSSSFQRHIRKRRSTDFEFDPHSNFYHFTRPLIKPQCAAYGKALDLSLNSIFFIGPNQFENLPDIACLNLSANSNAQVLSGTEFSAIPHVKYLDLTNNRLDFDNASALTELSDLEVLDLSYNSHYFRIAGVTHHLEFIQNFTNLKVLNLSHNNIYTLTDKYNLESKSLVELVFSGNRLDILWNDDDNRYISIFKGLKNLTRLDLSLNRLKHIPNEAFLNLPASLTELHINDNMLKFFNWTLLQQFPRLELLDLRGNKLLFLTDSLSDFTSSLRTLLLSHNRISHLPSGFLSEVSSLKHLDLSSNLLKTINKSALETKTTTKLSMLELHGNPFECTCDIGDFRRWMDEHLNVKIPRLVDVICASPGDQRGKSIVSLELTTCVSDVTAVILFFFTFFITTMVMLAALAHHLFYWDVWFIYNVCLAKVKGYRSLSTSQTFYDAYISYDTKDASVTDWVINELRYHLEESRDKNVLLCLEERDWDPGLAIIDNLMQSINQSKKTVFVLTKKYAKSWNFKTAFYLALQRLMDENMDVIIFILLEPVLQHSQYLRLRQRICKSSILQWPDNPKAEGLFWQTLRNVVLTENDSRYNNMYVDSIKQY
Description: HEK293-Blue-hTLR-8 cells assay (SEAP reporter, R848 stimulation). Format: cell-based. As to conditions: HEK293-Blue-hTLR8 cells, R848, 20 hrs. How it is done: The following tests were carried out in order to determine the activity of the compounds of formula (I) in HEK293-Blue-hTLR-7/8/9 cells assay.
HEK293-Blue-hTLR-8 Cells Assay:
A stable HEK293-Blue-hTLR-8 cell line was purchased from InvivoGen (Cat. #: hkb-htlr8, San Diego, Calif., USA). These cells were originally designed for studying the stimulation of human TLR8 by monitoring the activation of NF-κB. A SEAP (secreted embryonic alkaline phosphatase) reporter gene was placed under the control of the IFN-β minimal promoter fused to five NF-κB and AP-1-binding sites. The SEAP was induced by activating NF-κB and AP-1 via stimulating HEK-Blue hTLR8 cells with TLR8 ligands. Therefore the reporter expression was declined by TLR8 antagonist under the stimulation of a ligand, such as R848, for incubation of 20 hrs. The cell culture supernatant SEAP reporter activity was determined using QUANTI-Blue™ kit (Cat #. rep-qbl, Invivogen, San Diego, Calif., USA) at a wavelength of 640 nm, a detection medium that turns purple or blue in the presence of alkaline phosphatase.
HEK293-Blue-hTLR8 cells were incubated at a density of 250,000˜450,000 cells/mL in a volume of 170 μL in a 96-well plate in Dulbecco's Modified Eagle's medium (DMEM) containing 4.5 g/L glucose, 50 U/mL penicillin, […], […], 2 mM L-glutamine, 10% (v/v) heat-inactivated fetal bovine serum with addition of 20 μL test compound in a serial dilution in the presence of final DMSO at 1% and 10 μL of 60 μM R848 in above DMEM, perform incubation under 37° C. in a CO2 incubator for 20 hrs. Then 20 μL of the supernatant from each well was incubated with 180 μL Quanti-blue substrate solution at 37° C. for 2 hrs and the absorbance was read at 620˜655 nm using a spectrophotometer. The signalling pathway that TLR8 activation leads to downstream NF-KB activation has been widely accepted, and therefore similar reporter assay was modified for evaluating TLR8 antagonist.
`C[C@@H]1CN(c2ccc(C(F)(F)F)c3ncccc23)C[C@H](C(=O)NC2C[C@H]3C[C@@H]2CN3)O1` (stereo partly drawn) [Example 44] displayed an IC50 of 43 nM.
As for `C[C@@H]1CN(c2ccc(C(F)(F)F)c3ncccc23)C[C@H](C(=O)NC2CNC[C@@H]2F)O1` (stereo partly drawn) [Example 2, cis-(2R,6R)-N-(4-fluoropyrrolidin-3-yl)-6-methyl-4-[8-(trifluoromethyl)-5-quinolyl]morpholine-2-carboxamide], the figure is 6 nM.
In the case of `C[C@@H]1CN(c2ccc(C(F)(F)F)c3ncccc23)C[C@H](C(=O)NCC2CNCCO2)O1` (stereo partly drawn) [Example 48, (2R,6R)-6-methyl-N-(morpholin-2-ylmethyl)-4-[8-(trifluoromethyl)-5-quinolyl]morpholine-2-carboxamide], the IC50 is < 3 nM.
`C[C@@H]1CN(c2ccc(C(F)(F)F)c3ncccc23)C[C@H](C(=O)NC[C@@H]2C[C@@H](F)CN2)O1` [Example 27, (2R,6R)-N-[[(2S,4R)-4-fluoropyrrolidin-2-yl]methyl]-6-methyl-4-[8-(trifluoromethyl)-5-quinolyl]morpholine-2-carboxamide]: the IC50 was 21 nM.
As for `C[C@@H]1CN(c2ccc([N+](=O)[O-])c3ncccc23)C[C@H](C(=O)NCC2CN(C)CCO2)O1` (stereo partly drawn) [Example 18, (2R,6R)-6-methyl-N-[(4-methylmorpholin-2-yl)methyl]-4-(8-nitro-5-quinolyl)morpholine-2-carboxamide], the figure is < 3 nM.
`Cc1ccc(N2C[C@@H](C)C[C@@H](N)C2)c2cccnc12` [Example 15, (3R,5S)-5-methyl-1-(8-methyl-5-quinolyl)piperidin-3-amine]: half-maximal inhibition (IC50) was put at 15 nM.
The figure for `C[C@@H]1CN(c2ccc(C(F)(F)F)c3ncccc23)C[C@H](C(=O)NCC2CCCCN2C)O1` (stereo partly drawn) [Example 4, (2R,6R)-6-methyl-N-[(1-methyl-2-piperidyl)methyl]-4-[8-(trifluoromethyl)-5-quinolyl]morpholine-2-carboxamide] is 10 nM.
The figure for `C[C@@H]1CN(c2ccc(C(F)(F)F)c3ncccc23)C[C@H](C(=O)NC2CC3CNCC(C3)C2)O1` (stereo partly drawn) [Example 37, (2R,6R)-N-(3-azabicyclo[3.3.1]nonan-7-yl)-6-methyl-4-[8-(trifluoromethyl)-5-quinolyl]morpholine-2-carboxamide] is 6 nM.
As for `C[C@@H]1CN(c2ccc(C(F)(F)F)c3ncccc23)C[C@H](C(=O)NC2CC3CCC(C2)N3)O1` (single isomer, unassigned) [Example 47A], the figure is < 3 nM; as for `CC(NC(=O)[C@H]1CN(c2ccc(C(F)(F)F)c3ncccc23)C[C@@H](C)O1)C1CN(C)CCO1` (single isomer, unassigned) [Example 35A], 6 nM; as for `C[C@@H]1CN(c2ccc(C(F)(F)F)c3ncccc23)C[C@H](C(=O)NC2C3CNCC2COC3)O1` (single isomer, unassigned) [Example 46B], 55 nM.
For `C[C@@H]1CN(c2ccc(Cl)c3ncccc23)C[C@H](C(=O)NCC2CN(C)CCO2)O1` (stereo partly drawn) [Example 26, (2R,6R)-4-(8-chloro-5-quinolyl)-6-methyl-N-[(4-methylmorpholin-2-yl)methyl]morpholine-2-carboxamide], the IC50 was < 3 nM.
The figure for `Cc1ccc(N2C[C@@H](C)O[C@@H](C(=O)NCC3CN(C)CCO3)C2)c2cccnc12` (stereo partly drawn) [Example 17, (2R,6R)-6-methyl-N-[(4-methylmorpholin-2-yl)methyl]-4-(8-methyl-5-quinolyl)morpholine-2-carboxamide] is 25 nM; for `C[C@@H]1CN(c2ccc(C(F)(F)F)c3ncccc23)C[C@H](C(=O)NC2CC3CCCC(C2)N3)O1` (single isomer, unassigned) [Example 34B] it is 6 nM; for `C[C@@H]1CN(c2ccc(Cl)c3ncccc23)C[C@H](C(=O)NC2CCCNCC2)O1` (stereo partly drawn) [Example 25, (2R,6R)-N-(azepan-4-yl)-4-(8-chloro-5-quinolyl)-6-methyl-morpholine-2-carboxamide] it is < 3 nM.
On to `C[C@@H]1CN(c2ccc(C(F)(F)F)c3ncccc23)C[C@H](C(=O)NC2CC3CNCC32)O1` (single isomer, unassigned) [Example 49C], for which the half-inhibitory concentration (IC50) stood at 5 nM.
The figure for `C[C@@H]1CN(c2ccc(C(F)(F)F)c3ncccc23)C[C@H](C(=O)NC2CNCCOC2)O1` (stereo partly drawn) [Example 14, (2R,6R)-6-methyl-N-(1,4-oxazepan-6-yl)-4-[8-(trifluoromethyl)-5-quinolyl]morpholine-2-carboxamide] is 7 nM.
The figure for `C[C@@H]1CN(c2ccc(C(F)(F)F)c3ncccc23)C[C@H](C(=O)NC2CC3CNCC32)O1` (single isomer, unassigned) [Example 49A] is 22 nM; for `C[C@@H]1CN(c2ccc(C(F)(F)F)c3ncccc23)C[C@H](C(=O)N[C@H]2CNC[C@H]2F)O1` (single isomer, unassigned) [Example 2B] it is 8 nM; for `C[C@@H]1CN(c2ccc(C(F)(F)F)c3ncccc23)C[C@H](C(=O)N2CCC(N)CC2)O1` [Example 12, (4-amino-1-piperidyl)-[(2R,6R)-6-methyl-4-[8-(trifluoromethyl)-5-quinolyl]morpholin-2-yl]methanone] it is 5 nM.
The figure for `C[C@@H]1CN(c2ccc(Br)c3ncccc23)C[C@H](C(=O)NC2CCN(C)CC2)O1` [Example 42, (2R,6R)-4-(8-bromo-5-quinolyl)-6-methyl-N-(1-methyl-4-piperidyl)morpholine-2-carboxamide] is < 3 nM.
Consider `C[C@@H]1CN(c2ccc(C(F)(F)F)c3ncccc23)C[C@H](C(=O)NC2CNCC(F)(F)C2)O1` (stereo partly drawn) [Example 28, (2R,6R)-N-(5,5-difluoro-3-piperidyl)-6-methyl-4-[8-(trifluoromethyl)-5-quinolyl]morpholine-2-carboxamide], for which the IC50 amounted to 86 nM.
As for `C[C@@H]1CN(c2ccc(Br)c3ncccc23)C[C@H](C(=O)NC2CNCC2F)O1` (stereo partly drawn) [Example 41, cis-(2R,6R)-4-(8-bromo-5-quinolyl)-N-[4-fluoropyrrolidin-3-yl]-6-methyl-morpholine-2-carboxamide], the figure is < 3 nM; as for `C[C@@H]1CN(c2ccc(C(F)(F)F)c3ncccc23)C[C@H](C(=O)NC2CC3CCCC(C2)N3)O1` (single isomer, unassigned) [Example 34A], < 3 nM; as for `C[C@@H]1CN(c2ccc([N+](=O)[O-])c3ncccc23)C[C@H](C(=O)N[C@@H]2CNC[C@@H]2F)O1` [Example 19, cis-(2R,6R)-N-[41-fluoropyrrolidin-3-yl]-6-methyl-4-(8-nitro-5-quinolyl)morpholine-2-carboxamide], < 3 nM.
As for `C[C@@H]1CN(c2ccc(C(F)(F)F)c3ncccc23)C[C@H](C(=O)NC2CCN(C)CC2)O1` [Example 5, (2R,6R)-6-methyl-N-(1-methyl-4-piperidyl)-4-[8-(trifluoromethyl)-5-quinolyl]morpholine-2-carboxamide], the figure is < 3 nM; as for `C[C@@H]1CN(c2ccc(C(F)(F)F)c3ncccc23)C[C@H](C(=O)N2CCC(N)C2)O1` (stereo partly drawn) [Example 10, (3-aminopyrrolidin-1-yl)-[(2R,6R)-6-methyl-4-[8-(trifluoromethyl)-5-quinolyl]morpholin-2-yl]methanone], 29 nM.

Usually IC50 stands for the concentration that inhibits the measured activity by half.

These data come from patent US20220363665A1, “QUINOLINE COMPOUNDS FOR THE TREATMENT OF AUTOIMMUNE DISEASE” (Hoffmann-La Roche Inc., priority 2019, published 2022).
